According to PubChem BioAssay AID330 (DTP/NCI, 2004):
“And” between values parts separate entries of the source, which are not always exact repeats. Equal values may be shown once. Toxic doses and inconclusive results are not listed.

Tested on: P388 leukemia ip, CD2F1 mice, survival T/C
Test: NCI In Vivo Anticancer Drug Screen. Data for tumor model P388 Leukemia (intraperitoneal) in CD2F1 (CDF1) mice
Conditions: endpoint: median survival time, higher = longer survival
Procedure, shortened: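 Mice carrying the transplanted tumor received test compound or vehicle. Survival was recorded in each group, and the value is the treated-group measurement divided by that of the vehicle-treated control group.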

[1] = dose: 50.0 mg/kg/injection, schedule: Q01DX005 (ip), vehicle: Klucel (hydroxypropylcellulose) (HPC)
[2] = dose: 100.0 mg/kg/injection, schedule: Q01DX005 (ip), vehicle: Klucel (hydroxypropylcellulose) (HPC)
[3] = dose: 200.0 mg/kg/injection, schedule: Q01DX005 (ip), vehicle: Klucel (hydroxypropylcellulose) (HPC)
[4] = dose: 50.0 mg/kg/injection, schedule: Q01DX009 (ip), vehicle: saline
[5] = dose: 100.0 mg/kg/injection, schedule: Q01DX009 (ip), vehicle: saline
[6] = dose: 200.0 mg/kg/injection, schedule: Q01DX009 (ip), vehicle: saline
[7] = dose: 25.0 mg/kg/injection, schedule: Q01DX005 (ip), vehicle: saline with Tween-80
[8] = dose: 50.0 mg/kg/injection, schedule: Q01DX005 (ip), vehicle: saline with Tween-80
[9] = dose: 60.0 mg/kg/injection, schedule: Q01DX005 (ip), vehicle: saline with Tween-80
[10] = dose: 100.0 mg/kg/injection, schedule: Q01DX009 (ip), vehicle: saline with Tween-80
[11] = dose: 200.0 mg/kg/injection, schedule: Q01DX009 (ip), vehicle: saline with Tween-80
[12] = dose: 400.0 mg/kg/injection, schedule: Q01DX009 (ip), vehicle: saline with Tween-80

In the case of `CC(=O)Nc1ccc(S(=O)(=O)n2c(=O)oc3ccc(Cl)cc32)cc1`, the T/C [1] is reported as 99 % of control, the T/C [2] is reported as 94 % of control and the T/C [3] is reported as 94 % of control.

In the case of `CCCCCCC1(O)OC(=O)C(C)=C1C` (configuration not stated), the T/C (dose: 12.5 mg/kg/injection, schedule: Q04DX003 (ip), vehicle: saline with Tween-80) is reported as 110 % of control, the T/C (dose: 25.0 mg/kg/injection, schedule: Q04DX003 (ip), vehicle: saline with Tween-80) is reported as 94 % of control and the T/C (dose: 50.0 mg/kg/injection, schedule: Q04DX003 (ip), vehicle: saline with Tween-80) is reported as 94 % of control.

For `CCC1C(=O)CC(c2ccc(OC)cc2)OC1c1ccc(OC)cc1` (configuration not stated), the T/C [4] was 88 % of control, the T/C [5] was 96 % of control and the T/C [6] was 99 % of control.

For `Cc1ccc2c(c1)N=C(OCCCN(C)C)/C(=C/c1ccccc1)O2`, the T/C (dose: 50.0 mg/kg/injection, schedule: Q04DX002 (ip), vehicle: Klucel (hydroxypropylcellulose) (HPC)) was 105 % of control, the T/C (dose: 100.0 mg/kg/injection, schedule: Q04DX002 (ip), vehicle: Klucel (hydroxypropylcellulose) (HPC)) was 99 % of control and the T/C (dose: 200.0 mg/kg/injection, schedule: Q04DX002 (ip), vehicle: Klucel (hydroxypropylcellulose) (HPC)) was 101 % of control.

With `O=Cc1cc(CCl)ccc1O` the T/C (dose: 12.5 mg/kg/injection, schedule: Q01DX005 (ip), vehicle: saline with Tween-80) was 103 % of control, the T/C [7] was 110 % of control and the T/C [8] was 113 % of control. The T/C (dose: 100.0 mg/kg/injection, schedule: Q01DX005 (ip), vehicle: saline with Tween-80) was 98 % of control.

`CCn1c2ccccc2c2ccc(N=Cc3ccc4ccccc4c3)cc21` was tested, and the T/C (dose: 100.0 mg/kg/injection, schedule: Q04DX003 (ip), vehicle: saline + alcohol) was 92 % of control, the T/C (dose: 200.0 mg/kg/injection, schedule: Q04DX003 (ip), vehicle: saline + alcohol) was 97 % of control and the T/C (dose: 400.0 mg/kg/injection, schedule: Q04DX003 (ip), vehicle: saline + alcohol) was 97 % of control.

For `CNC(=O)OCn1cnc(Cl)c1Cl`, the T/C (dose: 50.0 mg/kg/injection, schedule: Q01DX005 (ip), vehicle: saline) was 93 % of control, the T/C (dose: 100.0 mg/kg/injection, schedule: Q01DX005 (ip), vehicle: saline) was 101 % of control and the T/C (dose: 200.0 mg/kg/injection, schedule: Q01DX005 (ip), vehicle: saline) was 102 % of control.

With `COc1ccc(/C=N/Nc2nnc3c4cccnc4c4ccccc4c3n2)cc1OC` the T/C (dose: 3.12 mg/kg/injection, schedule: Q01DX001 (ip), vehicle: saline with Tween-80) was 102 % of control and 87 % of control, the T/C (dose: 6.25 mg/kg/injection, schedule: Q01DX001 (ip), vehicle: saline with Tween-80) was 100 % of control and 87 % of control and the T/C (dose: 50.0 mg/kg/injection, schedule: Q01DX001 (ip), vehicle: saline with Tween-80) was 104 % of control and 112 % of control. For the same molecule, the T/C (dose: 100.0 mg/kg/injection, schedule: Q01DX001 (ip), vehicle: saline with Tween-80) was 100 % of control and 111 % of control, the T/C (dose: 200.0 mg/kg/injection, schedule: Q01DX001 (ip), vehicle: saline with Tween-80) was 106 % of control and 114 % of control and the T/C (dose: 400.0 mg/kg/injection, schedule: Q01DX001 (ip), vehicle: saline with Tween-80) was 107 % of control.

With `COc1ccc2c(c1)C(NCCCCCCNc1cc(C)[n+](C)c3ccc(OC)cc13)=CC(C)N2C` (configuration not stated) the T/C [7] was 113 % of control and the T/C [8] was 118 % of control.

For `NC(=S)N/N=C\c1nccc2ccccc12`, the T/C (dose: 6.25 mg/kg/injection, schedule: Q01DX009 (ip), vehicle: saline) was 90 % of control, the T/C (dose: 12.5 mg/kg/injection, schedule: Q01DX009 (ip), vehicle: saline) was 99 % of control and the T/C (dose: 50.0 mg/kg/injection, schedule: Q01DX009 (ip), vehicle: suspension in saline) was 94 % of control.

In the case of `COc1c[nH]c(CO)cc1=O`, the T/C [5] is reported as 101 % of control and 104 % of control, the T/C [6] is reported as 108 % of control and 114 % of control and the T/C (dose: 400.0 mg/kg/injection, schedule: Q01DX009 (ip), vehicle: saline) is reported as 99 % of control and 114 % of control.

For `CCC[CH2][Sn]([F])([CH2]CCC)[O][Sn]([F])([CH2]CCC)[CH2]CCC`, the T/C (dose: 100.0 mg/kg/injection, schedule: Q04DX003 (ip), vehicle: saline) was 101 % of control and the T/C (dose: 200.0 mg/kg/injection, schedule: Q04DX003 (ip), vehicle: saline) was 105 % of control.

In the case of `CC1(C)CC2(CC3(C1)SCCS3)OCCO2`, the T/C (dose: 100.0 mg/kg/injection, schedule: Q04DX003 (ip), vehicle: saline with Tween-80) is reported as 98 % of control, the T/C (dose: 200.0 mg/kg/injection, schedule: Q04DX003 (ip), vehicle: saline with Tween-80) is reported as 99 % of control and the T/C (dose: 400.0 mg/kg/injection, schedule: Q04DX003 (ip), vehicle: saline with Tween-80) is reported as 97 % of control.

For `CN(C)CCC(=O)c1ccccc1`, the T/C [4] was 104 % of control and the T/C [5] was 110 % of control.

With `[C-]#[N+]C1CCCCC1.[C-]#[N+]C1CCCCC1.[C-]#[N+]C1CCCCC1.[C-]#[N+]C1CCCCC1.[C-]#[N+]C1CCCCC1.[C-]#[N+]C1CCCCC1.[Mn]` the T/C (dose: 0.75 mg/kg/injection, schedule: Q01DX009 (ip), vehicle: saline with Tween-80) was 155 % of control and 159 % of control.

`COc1ccc2c(c1)C(O)(CN)CCCCC(OC)CCCC2` (configuration not stated) was tested, and the T/C (dose: 7.5 mg/kg/injection, schedule: Q01DX005 (ip), vehicle: saline with Tween-80) was 100 % of control, the T/C (dose: 15.0 mg/kg/injection, schedule: Q01DX005 (ip), vehicle: saline with Tween-80) was 101 % of control and the T/C (dose: 30.0 mg/kg/injection, schedule: Q01DX005 (ip), vehicle: saline with Tween-80) was 99 % of control. The T/C [9] was 101 % of control.

`O=C(O)/C(Cl)=C(Cl)\C=N\Nc1ccccc1` was tested, and the T/C (dose: 25.0 mg/kg/injection, schedule: Q04DX002 (ip), vehicle: saline with Tween-80) was 100 % of control, the T/C (dose: 50.0 mg/kg/injection, schedule: Q04DX002 (ip), vehicle: saline with Tween-80) was 102 % of control and the T/C (dose: 100.0 mg/kg/injection, schedule: Q04DX002 (ip), vehicle: saline with Tween-80) was 100 % of control.

`CCOC(=O)CNC(=O)C(CS)NC(=O)C(CSC(c1ccccc1)c1ccccc1)NC(=O)OCc1ccccc1` (configuration not stated) was tested, and the T/C [1] was 97 % of control, the T/C [2] was 99 % of control and the T/C [3] was 103 % of control.

For `CC(C)=CCCC(C)(OC1OC(CO)C(O)C(O)C1O)C1CCC2(C)C1C(O)CC1C3(C)CCC(O)C(C)(C)C3C(OC3OC(CO)C(O)C(O)C3OC3OC(C)C(O)C(O)C3O)CC12C` (configuration not stated), the T/C (dose: 2.0 mg/kg/injection, schedule: Q01DX009 (ip), vehicle: Klucel (hydroxypropylcellulose) (HPC)) was 88 % of control, the T/C (dose: 4.0 mg/kg/injection, schedule: Q01DX009 (ip), vehicle: Klucel (hydroxypropylcellulose) (HPC)) was 92 % of control and the T/C (dose: 8.0 mg/kg/injection, schedule: Q01DX009 (ip), vehicle: Klucel (hydroxypropylcellulose) (HPC)) was 92 % of control. For the same molecule, the T/C (dose: 16.0 mg/kg/injection, schedule: Q01DX009 (ip), vehicle: Klucel (hydroxypropylcellulose) (HPC)) was 95 % of control, the T/C (dose: 25.0 mg/kg/injection, schedule: Q01DX009 (ip), vehicle: Klucel (hydroxypropylcellulose) (HPC)) was 98 % of control and the T/C (dose: 32.0 mg/kg/injection, schedule: Q01DX009 (ip), vehicle: Klucel (hydroxypropylcellulose) (HPC)) was 88 % of control. For the same molecule, the T/C (dose: 50.0 mg/kg/injection, schedule: Q01DX009 (ip), vehicle: Klucel (hydroxypropylcellulose) (HPC)) was 100 % of control, the T/C (dose: 100.0 mg/kg/injection, schedule: Q01DX009 (ip), vehicle: Klucel (hydroxypropylcellulose) (HPC)) was 100 % of control and the T/C (dose: 200.0 mg/kg/injection, schedule: Q01DX009 (ip), vehicle: Klucel (hydroxypropylcellulose) (HPC)) was 98 % of control.

With `COc1ccc2c(c1)OC(C)(C)[C@H](c1ccc(O)cc1)[C@@H]2c1ccccc1` the T/C [9] was 90 % of control and the T/C (dose: 120.0 mg/kg/injection, schedule: Q01DX005 (ip), vehicle: saline with Tween-80) was 90 % of control.

`CCCC12C=C(OC)C(=O)C=C1OC(c1cc(OC)c(OC)c(OC)c1)C2C` (configuration not stated) was tested, and the T/C (dose: 8.75 mg/kg/injection, schedule: Q01DX005 (ip), vehicle: Klucel (hydroxypropylcellulose) (HPC)) was 101 % of control, the T/C (dose: 17.5 mg/kg/injection, schedule: Q01DX005 (ip), vehicle: Klucel (hydroxypropylcellulose) (HPC)) was 96 % of control and the T/C (dose: 35.0 mg/kg/injection, schedule: Q01DX005 (ip), vehicle: Klucel (hydroxypropylcellulose) (HPC)) was 100 % of control.

`Cc1ccc(NC(=O)Oc2cc(C)c(Br)c(C)c2)cc1Cl` was tested, and the T/C [4] was 107 % of control, the T/C [5] was 95 % of control and the T/C [6] was 91 % of control.

In the case of `CNc1ccccc1C(=O)C(=O)O`, the T/C [10] is reported as 105 % of control, the T/C [11] is reported as 102 % of control and the T/C [12] is reported as 100 % of control.

`O=C(NC(CO)C(=O)O)C(Cl)Cl` (configuration not stated) was tested, and the T/C [1] was 101 % of control, the T/C [2] was 95 % of control and the T/C [3] was 101 % of control.

For `COc1ccccc1CC(N)c1nn[nH]n1` (configuration not stated), the T/C (dose: 25.0 mg/kg/injection, schedule: Q01DX009 (ip), vehicle: saline with Tween-80) was 96 % of control, the T/C (dose: 50.0 mg/kg/injection, schedule: Q01DX009 (ip), vehicle: saline with Tween-80) was 98 % of control and 99 % of control and 101 % of control and the T/C [10] was 104 % of control and 89 % of control and 96 % of control. The T/C [11] was 91 % of control and 97 % of control and the T/C [12] was 96 % of control.
